# Literature values as cited in EP2229962A1, “Medical-surgical devices with antibacterial coating for human or animal implant and a method for their production” (Martelli, Laura, priority 2009, dated 2010).
# Read-outs that look alike come from different tables or passages of the source.
structure (smiles),measurement,setting,value
"[Ag+] [Ag^+ ions, Ag^+]",concentration above which there are cytotoxic effects to the surrounding tissue,surrounding tissue,> 35 ppb
same,concentration of Ag^+ ions needed to perform an antibacterial action,bacteria; 1 ppb equivalent to 1 µg/l,at least 1 ppb
same,concentration of Ag^+ ions needed to perform an antibacterial action,bacteria; in the case of certain bacteria,≥ 0.1 ppb
